From patent US11958814B1, “3-(4-nitrophenyl)-5-((2-isopropyl-5-methylphenoxy)methyl)-1,2,4-oxadiazole as an anti-cancer and antimicrobial compound” (KING FAISAL UNIVERSITY, priority 2023, dated 2024)

Columns and labels:
[1] = test system: human osteosarcoma cells (MG-63); experiment: Cytotoxicity by SRB assay; assay type: cell-based; settings: MG-63 cells, 0.01 μM to 100 μM for 72 h
Text: (§1) The anticancer activity of the described synthesized compounds against highly aggressive androgen-independent metastatic human prostate cancer cells (PC3) and osteosarcoma (MG-63) cells. The human prostate cancer cells (PC3) and human osteosarcoma cells (MG-63) were obtained from Nawah Scientific Inc. (Mokatam, Cairo, Egypt) and cultured in DMEM (Dulbecco's modified eagle's medium), Gibco, USA, supplemented with fetal bovine serum (FBS) at a concentration of 10% and 100 U/mL of penicillin and streptomycin (PS). The Cells were incubated at 37° C. in a humidified environment that contained 5% CO2.
(§2) Cells were seeded in 96-well plates as aliquots of 100 μL cell suspension and incubated in a complete media for 24 h. afterward, cells were treated with 3-(4-nitrophenyl)-5-((2-isopropyl-5-methylphenoxy)methyl)-1,2,4-oxadiazole at diverse concentrations ranging from 0.01 μM to 100 μM for 72 h. Then, cells were fixed at 4° C. for one hour with 150 μL of 10% trichloroacetic acid (TCA). […] Then, 150 μL of Tris pH 10.5 (10 mM) was added, and the absorbance was measured at 540 nm using a BMG LABTECH®-FLUOstar Omega microplate reader (Ortenberg, Germany). Half maximal inhibitory concentrations (IC50) values were calculated for each experiment using GraphPad Prism 6 software. […]
(§3) The inhibition was calculated using the following equation: Inhibition %=100−Average Viability

[2] = test system: human prostate cancer cells (PC3); experiment: Cytotoxicity by SRB assay; assay type: cell-based; settings: 0.01 μM to 100 μM for 72 h
Text: as §1, §2, §3

Aspergillus flavus = experiment: Agar plate disc-diffusion, inhibition zone (antifungal); assay type: cell-based; settings: 72 h for fungi
Procedure: (§4) The agar plate disc-diffusion method was applied. Sterilized filter papers (6 mm in diameter) were wetted with 10 μL of a solution of 3-(4-nitrophenyl)-5-((2-isopropyl-5-methylphenoxy)methyl)-1,2,4-oxadiazole (3) to be tested, containing 10 mg/mL in DMSO, and the discs were allowed to air dry. The discs were then placed onto the surface of agar plates (nutrient agar for bacteria and Sabouraud's dextrose agar for fungi) seeded with the test organism. Each plate contained 15 mL of the agar medium, previously seeded with 0.2 mL of the broth culture of each organism pregrown for 18 hours. The plates were incubated at 37° C. for 48 h, and 72 h for fungi. The inhibition zones were measured in mm. Discs impregnated with DMSO were used as a control, and its inhibition zone was subtracted from the tested compound actual inhibition zone.

[3] = test system: Chrysosporium keratinophilum; experiment: as above; assay type: cell-based; settings: 72 h for fungi
Procedure: as §4

Escherichia coli = experiment: Agar plate disc-diffusion, inhibition zone; assay type: cell-based; settings: 37° C., 48 h
Procedure: as §4

Pseudomonas aeruginosa = experiment: Agar plate disc-diffusion, inhibition zone; assay type: cell-based; settings: 37° C., 48 h
Procedure: as §4

Staphylococcus aureus = experiment: Agar plate disc-diffusion, inhibition zone; assay type: cell-based; settings: 37° C., 48 h
Procedure: as §4

Bacillus cereus = experiment: Agar plate disc-diffusion, inhibition zone; assay type: cell-based; settings: 37° C., 48 h
Procedure: as §4

different microbes = experiment: Antimicrobial screening by agar plate disc-diffusion, overall statement; assay type: cell-based; settings: against different microbes (bacteria and fungi of Tables 1 and 2)
Procedure: as §4

[4] = A = concentration of comp. = 10,000 μL
[5] = B = concentration of comp. = 30,000 μL
[6] = C = concentration of comp. = 50,000 μL
[7] = A = concentration of comp. = 10 mg/mL
[8] = A = concentration of comp. = 10,000 μg/mL

SMILES	inhibition zone (Aspergillus flavus; [4]) [mm]	inhibition zone (Aspergillus flavus; [5]) [mm]	inhibition zone (Aspergillus flavus; [6]) [mm]	inhibition zone [3, 4] [mm]	inhibition zone [3, 5] [mm]	inhibition zone [3, 6] [mm]	inhibition zone (Escherichia coli; [4]) [mm]	inhibition zone (Escherichia coli; [5]) [mm]	inhibition zone (Escherichia coli; [6]) [mm]	inhibition zone (Pseudomonas aeruginosa; [4]) [mm]	inhibition zone (Pseudomonas aeruginosa; [5]) [mm]	inhibition zone (Pseudomonas aeruginosa; [6]) [mm]	inhibition zone (Staphylococcus aureus; [7]) [mm]	inhibition zone (Staphylococcus aureus; [5]) [mm]	inhibition zone (Staphylococcus aureus; [6]) [mm]	inhibition zone (Bacillus cereus; [8]) [mm]	inhibition zone (Bacillus cereus; [5]) [mm]	inhibition zone (Bacillus cereus; [6]) [mm]	further results
Cc1ccc(C(C)C)c(OCc2nc(-c3ccc([N+](=O)[O-])cc3)no2)c1 [3-(4-nitrophenyl)-5-((2-isopropyl-5-methylphenoxy)methyl)-1,2,4-oxadiazole]																			antiproliferative activity (in words) [1]: excellent antiproliferative activities; antiproliferative activity (in words) [2]: excellent antiproliferative activities
O=C(O)c1cn(C2CC2)c2cc(N3CCNCC3)c(F)cc2c1=O [Cip., ciprofloxacin, reference compound]	29	30	42	29	30	53	30	39	60	29	30	53	43	44	53	29	30	42	
Cc1ccc(C(C)C)c(OCc2nc(-c3ccc([N+](=O)[O-])cc3)no2)c1 [Compound 3, 3-(4-nitrophenyl)-5-((2-isopropyl-5-methylphenoxy)methyl)-1,2,4-oxadiazole]	20	23	36	28	30	49	27	36	50	26	27	43	18	23	35	22	25	38	antimicrobial activity (in words) (different microbes): excellent antimicrobial activities; melting point: 172 to 173 °C
